Laboratory results as given in US9018388B2, “Pesticidal compositions and processes related thereto” (Dow AgroSciences LLC, priority 2012, dated 2015).
Where two headings read alike, the source gives them in different places.

What was measured:
[1] = system: Beet Armyworm (BAW) (Spodoptera exigua); assay: Bioassay on beet armyworm (BAW), 128-well diet tray assay; type: in vivo; details: Spodoptera exigua, read-out: % Mortality BAW 50 μg/cm^2
Protocol: (§1) Bioassays on Beet Armyworm (“BAW”) and Corn Earworm (“CEW”)
(§2) Certain molecules disclosed in this document were tested against BAW and CEW using procedures described in the following examples. In the reporting of the results, the “BAW & CEW Rating Table” was used (See Table Section).
Bioassays on BAW (Spodoptera exigua)
Bioassays on BAW were conducted using a 128-well diet tray assay. One to five second instar BAW larvae were placed in each well (3 mL) of the diet tray that had been previously filled with 1 mL of artificial diet to which 50 μg/cm^2 of the test compound (dissolved in 50 μL of 90:10 acetone-water mixture) had been applied (to each of eight wells) and then allowed to dry. Trays were covered with a clear self-adhesive cover and held at 25° C., 14:10 light-dark for five to seven days. Percent mortality was recorded for the larvae in each well; activity in the eight wells was then averaged. The results are indicated in the table entitled “Table 5: Biological Results” (See Table Section).

[2] = system: Corn Earworm (CEW) (Helicoverpa zea); assay: Bioassay on corn earworm (CEW), 128-well diet tray assay; type: in vivo; details: Helicoverpa zea, read-out: % Mortality CEW 50 μg/cm^2
Protocol: as §1, §2
Bioassays on CEW (Helicoverpa zea)
Bioassays on CEW were conducted using a 128-well diet tray assay. One to five second instar CEW larvae were placed in each well (3 mL) of the diet tray that had been previously filled with 1 mL of artificial diet to which 50 μg/cm^2 of the test compound (dissolved in 50 μL of 90:10 acetone-water mixture) had been applied (to each of eight wells) and then allowed to dry. Trays were covered with a clear self-adhesive cover and held at 25° C., 14:10 light-dark for five to seven days. Percent mortality was recorded for the larvae in each well; activity in the eight wells was then averaged. The results are indicated in the table entitled “Table 5: Biological Results” (See Table Section).

Row | SMILES | pest or weed control at 50 µg/cm2, 50 µg/cm2 ([1]; Beet armyworm, 50 μg/cm^2) [%] | pest or weed control at 50 µg/cm2, 50 µg/cm2 ([2]; Corn earworm, 50 μg/cm^2) [%] | pest or weed control at 50 µg/cm2, 50 µg/cm2 [1] [%] | pest or weed control at 50 µg/cm2, 50 µg/cm2 [2] [%]
1 | FC(F)(F)Oc1ccc(-n2cnc(-c3ccc(/C=N/N=C4\SCCCN4c4c(Cl)cccc4Cl)cc3)n2)cc1 [Compound 187C] | 50 to 100 | 50 to 100 |  | 
2 | COc1cc(C)c(N2C(=O)CSC2=NN=Cc2ccc(-c3ncn(-c4ccc(OC(F)(F)F)cc4)n3)cc2)c(C)c1 (stereo in doubt) [Compound 69C, (Z)-3-(4-methoxy-2,6-dimethylphenyl)-2-((E)-(4-(1-(4-(trifluoromethoxy)phenyl)-1H-1,2,4-triazol-3-yl)benzylidene)hydrazono)thiazolidin-4-one] | 50 to 100 | 50 to 100 |  | 
3 | CC(C)c1c(F)cccc1N1CS/C1=N\N=C\c1ccc(-c2ncn(-c3ccc(OC(F)(F)F)cc3)n2)cc1 [Compound 253C] | 50 to 100 | 50 to 100 |  | 
4 | Cc1cccc(C)c1/N=C(/N/N=C/c1ccc(-c2ncn(-c3ccc(OC(F)(F)F)cc3)n2)cc1)SCC#C[Si](C)(C)C [Compound 9C] |  |  | 50 to 100 | 50 to 100
5 | CCc1ccccc1N1C(=O)CS/C1=N\N=C\c1ccc(-c2ncn(-c3ccc(OC(F)(F)F)cc3)n2)cc1 [Compound 94C] | 50 to 100 | 50 to 100 |  | 
6 | COC(=O)C1CC(c2ccc(/C=N/N=C3\SCC(=O)N3c3c(C)cccc3C)cc2)=NN1c1ccc(OC(F)(F)F)cc1 (centres unmarked) [Compound 110C] | 50 to 100 | 50 to 100 |  | 
7 | O=C1CS/C(=N\N=C\c2ccc(-c3ncn(-c4ccc(OC(F)(F)F)cc4)n3)cc2)N1c1ccccc1OC(F)F [Compound 126C] | 50 to 100 | 50 to 100 |  | 
8 | CCCc1ccccc1N1C(=O)C(C)S/C1=N\N=C\c1ccc(-c2ncn(-c3ccc(OC(F)(F)F)cc3)n2)cc1 (centres unmarked) [Compound 128C] | 50 to 100 | 50 to 100 |  | 
9 | Cc1cccc(C)c1/N=C(/N/N=C/c1ccc(-c2ncn(-c3ccc(OC(F)(F)F)cc3)n2)cc1)SCc1ccc(C(=O)O)cc1 [Compound 6C] | 50 to 100 | 50 to 100 |  | 
10 | CC(C)(C)c1ccccc1N1C(=O)CS/C1=N\N=C\c1ccc(-c2ncn(-c3ccc(OC(F)(F)F)cc3)n2)cc1 [Compound 125C] | 50 to 100 | 50 to 100 |  | 
11 | Cc1cccc(C)c1/N=C(/N/N=C/c1ccc(-c2ncn(-c3ccc(OC(F)(F)F)cc3)n2)cc1)SCc1ccc(C(F)(F)F)o1 [Compound 16C] | 50 to 100 | 50 to 100 |  | 
12 | CC(C)c1ccccc1N1/C(=N/N=C/c2ccc(-c3ncn(-c4ccc(OC(F)(F)F)cc4)n3)cc2)SCC1C (racemic) [Compound 155C] | 50 to 100 | 50 to 100 |  | 
13 | CCc1cccc(C)c1N1CS/C1=N\N=C\c1ccc(-c2ncn(-c3ccc(OC(F)(F)F)cc3)n2)cc1 [Compound 243C] | 50 to 100 | 50 to 100 |  | 
14 | Cc1cccc(Cl)c1N1C(=O)CCS/C1=N\N=C\c1ccc(-c2ncn(-c3ccc(OC(F)(F)F)cc3)n2)cc1 [Compound 227C] | 50 to 100 | 50 to 100 |  | 
15 | FC(F)(F)Oc1ccc(-n2cnc(-c3ccc(/C=N/N=C4\SCCCN4c4ccccc4OC(F)(F)F)cc3)n2)cc1 [Compound 199C] | 50 to 100 | 50 to 100 |  | 
16 | Cc1cccc(C)c1/N=C(/N/N=C/c1ccc(-c2ncn(-c3ccc(OC(F)(F)F)cc3)n2)cc1)SCC(=O)NC[C@@H]1CCCN(C(=O)OC(C)(C)C)C1 [Compound 56C, (S)-tert-butyl 3-((2-((Z)-(2,6-dimethylphenylimino)-((E)-2-(4-(1-(4-(trifluoromethoxy)phenyl)-1H-1,2,4-triazol-3-yl)benzylidene)hydrazinyl)-methylthio)acetamido)methyl)piperidine-1-carboxylate] | 50 to 100 | 50 to 100 |  | 

Row | SMILES | pest or weed control at 50 µg/cm2, 50 µg/cm2 ([1]; Beet armyworm, 50 μg/cm^2) [%] | pest or weed control at 50 µg/cm2, 50 µg/cm2 ([2]; Corn earworm, 50 μg/cm^2) [%] | pest or weed control at 50 µg/cm2, 50 µg/cm2 [1] [%] | pest or weed control at 50 µg/cm2, 50 µg/cm2 [2] [%]
17 | CC(F)(F)Oc1ccccc1N1C(=O)CCS/C1=N\N=C\c1ccc(-c2ncn(-c3ccc(OC(F)(F)F)cc3)n2)cc1 [Compound 229C] | 50 to 100 | 50 to 100 |  | 
18 | CC(C)c1ccc(F)cc1N1CS/C1=N\N=C\c1ccc(-c2ncn(-c3ccc(C(F)(F)C(F)(F)F)cc3)n2)cc1 [Compound 260C] | 50 to 100 | 50 to 100 |  | 
19 | CCC(C)c1ccccc1N1CCCS/C1=N\N=C\c1ccc(-c2ncn(-c3ccc(OC(F)(F)F)cc3)n2)cc1 (centres unmarked) [Compound 183C] | 50 to 100 | 50 to 100 |  | 
20 | CCOc1ccccc1N1C(=O)CS/C1=N\N=C\c1ccc(-c2ncn(-c3ccc(OC(F)(F)F)cc3)n2)cc1 [Compound 116C] | 50 to 100 | 50 to 100 |  | 
21 | Cc1cccc(Cl)c1N1C(=O)CS/C1=N\N=C\c1ccc(-c2ncn(-c3ccc(OC(F)(F)F)cc3)n2)cc1 [Compound 93C] | 50 to 100 | 50 to 100 |  | 
22 | CC(C)c1ccccc1N1CS/C1=N\N=C\c1ccc(-c2ncn(-c3ccc4c(c3)OC(F)(F)O4)n2)cc1 [Compound 249C] | 50 to 100 | 50 to 100 |  | 
23 | O=C1CS/C(=N\N=C\c2ccc(-c3ncn(-c4ccc(OC(F)(F)F)cc4)n3)cc2)N1c1c(F)cccc1F [Compound 89C] | 50 to 100 | 50 to 100 |  | 
24 | CCC1CS/C(=N\N=C\c2ccc(-c3ncn(-c4ccc(OC(F)(F)F)cc4)n3)cc2)N1c1c(C)cccc1Cl (centres unmarked) [Compound 167C] | 50 to 100 | 50 to 100 |  | 
25 | Cc1cccc(C)c1/N=C(/N/N=C/c1ccc(-c2ncn(-c3ccc(OC(F)(F)F)cc3)n2)cc1)SCc1c(-c2ccccc2)noc1C [Compound 20C] | 50 to 100 | 50 to 100 |  | 
26 | CC(C)c1cc(F)ccc1N1CS/C1=N\N=C\c1ccc(-c2ncn(-c3ccc(OC(F)(F)F)cc3)n2)cc1 [Compound 252C] | 50 to 100 | 50 to 100 |  | 
27 | CC(C)c1ccc(F)cc1N1CS/C1=N\N=C\c1ccc(-c2ncn(-c3ccc(OC(F)(F)C(F)(F)F)cc3)n2)cc1 [Compound 256C] | 50 to 100 | 50 to 100 |  | 
28 | CC1CS/C(=N\N=C\c2ccc(-c3ncn(-c4ccc(OC(F)(F)F)cc4)n3)cc2)N1c1c(Cl)cccc1C(F)(F)F (centres unmarked) [Compound 160C] | 50 to 100 | 50 to 100 |  | 
29 | COc1ccc(N2C(=O)CCS/C2=N\N=C\c2ccc(-c3ncn(-c4ccc(OC(F)(F)F)cc4)n3)cc2)c(C)c1 [Compound 231C] | 50 to 100 | 50 to 100 |  | 
30 | Fc1cccc(F)c1N1CS/C1=N\N=C\c1ccc(-c2ncn(-c3ccc(OC(F)(F)F)cc3)n2)cc1 [Compound 245C] | 50 to 100 | 50 to 100 |  | 
31 | CC(C)c1ccccc1N1CCCS/C1=N\N=C\c1ccc(-c2ncn(-c3ccc(C(F)(F)F)cc3)n2)cc1 [Compound 179C] | 50 to 100 | 50 to 100 |  | 
